Like-named read-outs stand apart in the source and are kept apart here.
Assays:
HeLa cells = assay: Cell cycle distribution by flow cytometry (PI), HeLa; assay type: cell-based, human
Method: The effects of a 24 h treatment with different concentrations of 4o on cell cycle progression in Jurkat, and HeLa cells were determined by flow cytometry, following propidium iodide (PI) staining of the cells (Fig. 4, Panels A,B). […] In the HeLa cells, the G2/M block was accompanied by a significant reduction of both G1 and S phase cells. In order to determine whether 4o was able to block cells at the mitotic phase (M), cells were stained with an immunofluorescent antibody to p-histone H3, a well known mitotic marker, as well as PI, and analyzed by flow cytometry. As shown in Fig. 4 (Panel C), in which representative histograms are presented, Hela cells arrested in M phase by treatment with 4o are readily distinguished from G2 cells by the higher level of p-histone H3. In particular, treatment with 4o induced an increase in the percentage of mitotic cells from the 2% observed in untreated cells to about 30% with both 50 and 100 nM 4o at 24 h (Fig. 4, Panel D).
5 × 10^5 HeLa or Jurkat cells were treated with different concentrations of the test compounds for 24 h. After the incubation period, the cells were collected, centrifuged, and fixed with ice-cold ethanol (70%). […] Samples were analyzed on a Cytomic FC500 flow cytometer (Beckman Coulter). DNA histograms were analyzed using MultiCycle for Windows (Phoenix Flow Systems).

[1] = system: BL6-B16 mouse melanoma cell line; assay: Mouse allograft (syngeneic) tumor model; assay type: in vivo; settings: for reduction of tumor mass: doses on days 9, 11 and 14, C57BL/6 mice
Method: […] As reference compound, CA-4P (1b) was used at 30 mg/kg. The BL6-B16 mouse melanoma cell line, injected subcutaneously in syngeneic C57/BL6 mice, is able to proliferate and generate tumor masses.
Figure 9 Inhibition of mouse allograft growth in vivo by compound 4o. Male C57BL/6 mice were injected subcutaneously at their dorsal region with […] BL6-B16 murine melanoma cells. […] Injections were given intraperitoneally at the days indicated by the arrows. Data are presented as mean ± SEM of tumor volume at each time point for 5 animals per group. *p < 0.05, **p < 0.01 ***p < 0.001 vs. control.
Six week old C57BL/6 mice (Charles River, Calco) were injected subcutaneously into the dorsolateral flank with 2.5 × 10^5 BL6-B16 murine melanoma cells in 200 μL-total volume of PBS. When tumors were palpable, animals were treated intraperitoneally every other day with different doses of test compounds dissolved in 50 μL of DMSO. Tumors were measured in two dimensions, and tumor volume was calculated according to the formula V = (D × d^2)/2, where D and d are the major and minor perpendicular tumor diameters, respectively.

MCF-7 = assay: In vitro antiproliferative activity (MTT), MCF-7; assay type: cell-based; settings: Homo sapiens, MCF7, tumor cell proliferation, 72 h, mean ± SE
Method: (§1) Human T-cell leukemia (CCRF-CEM and Jurkat) and human B-cell leukemia (SEM) cells were grown in RPMI-1640 medium (Gibco, Milano, Italy). Breast adenocarcinoma (MCF7), human cervix carcinoma (HeLa), and human colon adenocarcinoma (HT-29) cells were grown in DMEM medium (Gibco, Milano, Italy), all supplemented with 115 units/mL penicillin G (Gibco, Milano, Italy), 115 μg/mL streptomycin (Invitrogen, Milano, Italy), and 10% fetal bovine serum (Invitrogen, Milano, Italy). Stock solutions (10 mM) of the different compounds were obtained by dissolving them in dimethyl sulfoxide (DMSO). Individual wells of a 96-well tissue culture microtiter plate were inoculated with 100 μL of complete medium containing 8 × 10^3 cells. The plates were incubated at 37 °C in a humidified 5% CO2 incubator for 18 h prior to the experiments. After medium removal, 100 μL of fresh medium containing the test compound at different concentrations was added to each well in triplicate and incubated at 37 °C for 72 h. The percentage of DMSO in the medium never exceeded 0.25%. This was also the maximum DMSO concentration in all cell-based assays described below. […] Different concentrations of the test compounds were added, and viability was determined 72 h later by the MTT test. For cytotoxicity evaluations in resting PBL cultures, non-adherent cells were resuspended (5 × 10^5 cells/mL) and treated for 72 h with the test compounds, as described above.

HeLa = assay: Mitochondrial membrane potential (JC-1), HeLa; assay type: cell-based, human; settings: HeLa, 50, 100 and 250 nM; time- and concentration-dependent
Method: Mitochondria play an essential role in the propagation of apoptosis. It is well established that, at an early stage, apoptotic stimuli alter the mitochondrial transmembrane potential (Δψmt). Δψmt was monitored by the fluorescence of the dye JC-1. […] This occurred in a time- and concentration-dependent fashion, and, in both cell lines, a significant increase was observed after a 6 h treatment. The disruption of Δψmt is associated with the appearance of annexin-V positivity in the treated cells when they are in an early apoptotic stage. […] Cells were treated with the indicated concentration of compound for 24 or 48 h and then stained with the fluorescent probe JC-1 for analysis of mitochondrial potential or H2-DCFDA for the evaluation of ROS levels. Cells were then analyzed by flow cytometry as described in the experimental section.

[2] = system: panel of seven human tumor cell lines; assay: Antiproliferative activity across the panel of seven human tumor cell lines; assay type: cell-based
Method: as §1

[3] = highest dose (7.5 mg/kg i.p.), mice, data not shown

CCOc1ccc(-c2nccn2-c2cc(OC)c(OC)c(OC)c2)cc1Cl [Compound 4o, 2-(3′-Chloro-4′-ethoxyphenyl)-1-(3′,4′,5′-trimethoxyphenyl)-1H-imidazole]
lowest concentration with a rise in G2/M cells (HeLa cells; 24 h treatment): 25 nM | cells arrested in G2/M (HeLa cells; highest concentration, 24 h): more than 80% | reduction of tumor mass ([1]; 1 mg/kg i.p.): 26.0% | reduction of tumor mass ([1]; 3.5 mg/kg i.p.): 32.2% | reduction of tumor mass ([1]; 7.5 mg/kg i.p.): 45.8% | animal body weight [1, 3]: did not cause a decrease in animal body weight | signs of toxicity [1, 3]: did not present any sign of toxicity | IC50 (MCF-7): 0.7 ± 0.06 nM | percentage of cells with low Δψmt (JC-1) (HeLa): remarkable increase | IC50 ([2]; average over the seven cell lines, read-out: average IC50 values): 1.3 nM | IC50 ([2]; range over seven cancer cell lines, read-out: IC50 values in the seven cell lines (range)): 0.4 to 3.8 nM
